The text below walks through data of the pKa sets of Baltruschat and Czodrowski (2020).

As for `O=[N+]([O-])c1cccc(-c2nnn[nH]2)c1`, the pKa (acidic group) was found to be 3.25. Same read-out and setting: the result for `O=C(O)CCc1nnnn1-c1ccccc1` reads 5. `Cc1cc(N)ncn1` showed a pKa (basic group) of 6.25.

In the case of `O=C(O)[C@@H]1CC[C@H](C(=O)O)[Se]1`, under “acidic group”, the pKa worked out at 3.55. Under “basic group”, `O=[N+]([O-])c1ccc([O-])c(CN2CCOCC2)c1` came in with a pKa of 7.92. For the molecule `O=C1CC(=O)NC(=S)[N-]1`, the pKa (acidic group) was 10.7. For `CSc1cccnc1`, the pKa (basic group) worked out at 4.45. Same read-out and setting: the result for `CC1(C)CC2CCN1C(=O)C2` (stereo not drawn) reads 5.33; that for `CC(O)CNCCO` (stereo not drawn), 8.81.

Regarding `CCN(CC)CCCNc1c2ccccc2[nH+]c2ccccc12`, for the setting “basic group”, the pKa came to 8.53.

On to `CC(=O)c1ccc(O)c2ncccc12`, for which the pKa came out at 7.75 (acidic group) and 4 (basic group). For `Cc1ccc2[nH]c(CO)nc2c1`, in that order: 11.5 and 5.64.

Regarding `CC1CC(C)C(=O)CC1=O` (stereo not drawn), the pKa (acidic group) was found to be 5.62.

Consider `CN(C)/C=N/c1ccc(Br)cc1`, for which the pKa (basic group) came to 8.1. `CC[C@H](C)[C@H]([NH3+])C(=O)O` registered a pKa (acidic group) of 2.31.

Under “basic group”, `CCCCCCCCN(CCO)CC(C)O` (stereo not drawn) displayed a pKa of 8.2.

On to `Cn1nc(/N=N/O)nc1N`, for which, for the setting “acidic group”, the pKa was 5.36.

For the molecule `CO[C@H]1O[C@H](C(=O)O)[C@H](O)[C@H](O)[C@H]1O`, where the note is “acidic group”, the pKa worked out at 3.55. In turn, `Cc1cc(N[NH3+])nc2ccccc12` had a pKa (basic group) of 2.8. The same measure, in the same setting: the result for `Cc1cc([O-])nc(-n2nc(C)cc2O)n1` reads 10; that for `CN1[C@@H]2CC[C@H]1[C@H](C(=O)[O-])[C@@H](O)C2`, 9.7.

For the setting “basic group”, `COc1ccc2c3c1O[C@H]1[C@@H](O)C=C[C@H]4[C@@H](C2)N(CCC#N)CC[C@@]341` showed a pKa of 5.68. Still for that read-out and setting: the result for `c1ccc(-c2ccc3ncc(C[NH+]4CCOCC4)n3n2)cc1` reads 2.91. Where the note is “acidic group”, `O=[N+]([O-])c1cc(Br)ccc1O` came in with a pKa of 6.36. With `CNc1ccccc1`, the pKa (basic group) was determined as 4.8. Take `COc1ccc2c3c([nH]c2c1)C(C)NCC3` (stereo not drawn): the pKa (acidic group) turned out to be 15.6.

Under “acidic group”, `CCC1(C2=CCCCC2)C(=O)NC(=S)NC1=O` showed a pKa of 7.12. Consider `NC(=O)[C@@H](N)Cc1ccccc1`, for which, under “acidic group”, the pKa came out at 7.26.

For the molecule `Nc1nc([Se-])c2ncn([C@H]3O[C@@H](CO)[C@H](O)[C@@H]3O)c2n1`, the pKa (basic group) worked out at 7.68. On the same count and under the same terms, with `C1CCN(CCCN2CCCCC2)CC1` the figure was 10.1. Consider `O/N=C/C(Cl)=N\O`, for which, under “acidic group”, the pKa is 8.24. As for `Cc1ccc(/N=N/c2ccc(N)cc2)cc1`, the pKa (basic group) came to 3.04. For `C[n+]1c(N)ccnc1[O-]`, the pKa was determined as 13.5 (acidic group) and 7.38 (basic group). `CCc1cccnn1` showed a pKa (basic group) of 3.58. The same measure, in the same setting: the result for `CC[n+]1c([O-])ccnc1[S-]` reads 8.65.

Take `Cc1ccc2c(c1)CC(=O)CC2`: for the setting “basic group”, the pKa is 12.9.

Molecule `Cc1cc([O-])ccc1O` displayed a pKa (acidic group) of 11.8. Molecule `COc1nc2ccccc2[nH]1` displayed a pKa (basic group) of 3.75. Turning to `O=C1COC(=O)C1Br` (stereo not drawn), for the setting “acidic group”, the pKa amounted to 2.23. Still for that read-out and setting: with `Cc1cc(S(=O)(=O)Nc2nccs2)ccc1N` the figure was 7. Regarding `CC(C)(C)NC[C@H](O)COc1nsnc1N1CCOCC1`, the pKa (basic group) stood at 9.7. As for `CCCCCOc1ccc(C(=O)O)cc1`, the pKa (acidic group) came to 4.49. Under “basic group”, `CC[NH2+]/C(=C/C(=O)c1cccc(S(=O)(=O)[O-])c1)n1ccnc1` yielded a pKa of 4.5.

Consider `C[C@H]1C[C@@]23[C@@H]4CCCN2CCC[C@H]3[C@@H](O)C[C@H]4C1=O`, for which the pKa (basic group) amounted to 9.13. For the setting “acidic group”, `CC(=N\O)/C(CO)=N/O` returned a pKa of 10.1. On the same count and under the same terms, the result for `O=C(O)C(=O)Cc1ccccc1` reads 2.68. On the same count and under the same terms, with `COc1ccccc1/C=C/C=N\O` the figure was 11.3. `Nc1cncc2ccccc12` came in with a pKa (basic group) of 6.28. `CC(C(N)=O)S(N)(=O)=O` (stereo not drawn) returned a pKa (acidic group) of 9.86. The same measure, in the same setting: the result for `O[n+]1c2ccccc2cc2ccccc21` reads 1.37; that for `C/C(=N/O)c1cc(C)c(C)cc1O`, 8.2.

As to `c1ccc(-c2cccnc2)nc1`, the pKa (basic group) is 4.42. On the same count and under the same terms, the result for `c1ccc(NC2CCCCC2)cc1` reads 5.6. Molecule `C[Si](C)(C)C#CC(=O)O` displayed a pKa (acidic group) of 2.21. With `CC(C)(C)c1cccnc1`, where the note is “basic group”, the pKa is 5.82. Under “acidic group”, `Cc1ccc(Cl)c(C(=O)O)c1` showed a pKa of 3.12. With `CN1CCCC1c1cncc2[nH]c3ccccc3c12` (stereo not drawn), where the note is “basic group”, the pKa was determined as 8.02. Under “basic group”, `NCCc1c[nH]c2ccccc12` registered a pKa of 10.2. Still for that read-out and setting: the result for `[S-]c1ccnc([S-])[nH+]1` reads 6.46; that for `NCC(=O)CN`, 8.32. On the same count and under the same terms, with `CN(C)c1cccc([N+](=O)[O-])c1` the figure was 2.58. `NC(=O)C(CCCCC(=O)O)c1ccccc1` (stereo not drawn) had a pKa (acidic group) of 4.79. `CN1C[C@@H](C(=O)[O-])C[C@@]2(O)c3cccc4[nH]cc(c34)C[C@H]12` had a pKa (basic group) of 9. Still for that read-out and setting: with `NCC[Se-]` the figure was 10.9; with `CN[C@H]1C[C@@H]1[NH2+]C`, 5.65. The same measure, in the same setting: the result for `CNCCNC` reads 10.1; that for `CN1CCC2=C(C1)C(c1ccccc1)c1ccccc12` (stereo not drawn), 8.29; that for `C[Si](C)(C)c1ccc(N)cc1`, 4.36. With `CC(C)=C(C#N)C(=O)O`, where the note is “acidic group”, the pKa came out at 3.04. `NNC(=O)C1(F)C(F)(F)C(F)(F)C(F)(F)C(F)(F)C1(F)F` registered a pKa (acidic group) of 9.14. Regarding `CN1CC(O[Si](C)(C)C)C1`, under “basic group”, the pKa turned out to be 9.1.

As for `Cn1cc[nH+]c1-c1ccccn1`, the pKa (basic group) worked out at 0.4. Regarding `Cc1ccccc1B(O)O`, where the note is “acidic group”, the pKa is 9.74.

In the case of `CCn1nnnc1NC(C)=O`, the pKa (acidic group) was 8.38.

For `[O-]c1cccc(Cl)n1`, the pKa (basic group) came to 7.76. As to `Cc1cc(O)ccc1[S+](C)C`, under “acidic group”, the pKa stood at 7.6. With `CCN(CC)CCCCCCNc1c2ccc(Cl)cc2nc2ccc(OC)cc12`, the pKa (basic group) turned out to be 10.3. On the same count and under the same terms, the result for `COc1ccc(C(O)CN)cc1` (stereo not drawn) reads 9.02; that for `NCCCCCCCCCCCCN`, 10.8. The same measure, in the same setting: with `Cc1cc(NCCC[NH+](C)C)c2c([N+](=O)[O-])cccc2n1` the figure was 6.41. With `CNc1ccccc1C`, the pKa (basic group) was 4.59.

In the case of `CC(C)=CC[C@@H]1C(=O)C(C(=O)CC(C)C)=C(O)[C@H]1O`, the pKa (acidic group) came to 2.35. `C[NH+](C)CCNc1ccnc2cccc([N+](=O)[O-])c12` displayed a pKa (basic group) of 5.77.

For `CCN(CC)Cc1cc(Cl)cc(Cl)c1[O-]`, under “basic group”, the pKa came out at 11.6.

As for `O=Cc1ncnc2nc[nH]c12`, the pKa was 8.8 (acidic group) and 2.4 (basic group). `O=C(O)c1ccc(F)c([N+](=O)[O-])c1` yielded a pKa (acidic group) of 3.37. Still for that read-out and setting: the result for `Nc1nc2[nH]cnc2c(O)[nH+]1` reads 3. For `Cc1nc(N(C)C)nc(OC(=O)N(C)C)c1C`, the pKa (basic group) is 4.53. Still for that read-out and setting: the result for `CCN1CCC[C@@H]1CNC(=O)c1c([O-])c(Br)cc(Br)c1OC` reads 9.12. In the case of `O=Cc1ccncc1O`, the pKa reads like this: (acidic group) 6.77; (basic group) 4.05.

`Nc1cc(O)ccc1O` displayed a pKa (acidic group) of 10.1. The same measure, in the same setting: the result for `C[NH+](C)Cc1c(O)c(O)c(O)c(C[NH+](C)C)c1C(=O)[O-]` reads 6.95. With `CCC(=O)SCCN(C)C`, the pKa (basic group) worked out at 8.28. Same read-out and setting: with `Cc1cc(N)ccn1` the figure was 9.44; with `C(=C\CN1CCCCC1)/CN1CCCCC1`, 9.7.

Under “basic group”, `CCN(CC)CCCCNc1cc[nH+]c2ccccc12` returned a pKa of 8.94. The same measure, in the same setting: the result for `Cc1c(N)ccc2c1-c1c(ccc3ccccc13)C2` reads 4.49; that for `Cn1ncc2c(NCc3ccccc3)ncnc21`, 3.66. Same read-out and setting: the result for `COc1cnc2ccccc2n1` reads 0.28; that for `Cn1cc[nH+]c1N=[N+]=[N-]`, 0.5.

The molecule `CCc1n[nH]c(CC)n1` had a pKa (acidic group) of 10.2. Turning to `COc1ccc(-c2cnc(-c3ccc([NH3+])cc3)o2)cc1`, the pKa (basic group) was 0.27.

Consider `Cc1cc(N)cc[n+]1[O-]`, for which, under “basic group”, the pKa worked out at 4.1. `CC1(C)CCC(=O)N1O` returned a pKa (acidic group) of 8.7. Still for that read-out and setting: the result for `CC(=O)CC(=O)CC(C)C` reads 9.07; that for `Cn1n[n+](C)nc1N`, 2.5. Still for that read-out and setting: with `C[n+]1c2ccccc2cc2c(N)cccc21` the figure was 10. `CN(C)Cc1ccc(C[NH+](C)C)c(O)c1O` showed a pKa (basic group) of 6.39. Still for that read-out and setting: with `Cc1nccnc1C` the figure was 2.24. `Cc1cc(C(O)=C(C#N)C#N)cc(C)c1O`: the pKa (acidic group) is 2.55. The molecule `CCOC(=O)C(Cc1ccc(C)cc1)C(C)=O` (stereo not drawn) yielded a pKa (acidic group) of 11.9.

In turn, `CCC[NH2+]CC(=O)O` returned a pKa (acidic group) of 2.31.

Consider `Nc1nc2ncncc2[nH]1`, for which the pKa came to 9.36 (acidic group) and 4.68 (basic group). Turning to `NC(=S)C[NH3+]`, for the setting “basic group”, the pKa was -8.39.

In the case of `CC1=NS(=O)(=O)c2cccnc2N1`, the pKa (acidic group) is 7.64.

Where the note is “basic group”, `Cc1ccccc1/C(=N/CCCN(C)C)c1ccccc1` returned a pKa of 9. In turn, `CCOO` had a pKa (acidic group) of 11.8. The molecule `O=C1CCc2cc(Cl)c([N+](=O)[O-])cc2C1` gave a pKa (acidic group) of 11.3.

Consider `CC1CCCC(C)(C)N1` (stereo not drawn), for which, where the note is “basic group”, the pKa stood at 11.3. Still for that read-out and setting: the result for `Cc1ccc(C2=NCCC2)cc1` reads 6.41. Consider `O=[N+]([O-])c1ccc(O)cc1`, for which, under “acidic group”, the pKa is 7.13. The same measure, in the same setting: with `Cc1cccc([N+](=O)[O-])c1C(=O)O` the figure was 2.13. For `NNC(=O)[C@@H](N)Cc1ccccc1`, the pKa (basic group) is 7.06. Same read-out and setting: the result for `NOCc1ccccc1` reads 4.34. In the case of `CN(CCC[NH+](C)C)C(=O)/C=N/O`, the pKa (acidic group) was 8.68. On to `NCc1cc(Cl)ccc1[N+](=O)[O-]`, for which, where the note is “basic group”, the pKa came out at 8.19. The molecule `Cc1ccncn1` yielded a pKa (basic group) of 1.99. Still for that read-out and setting: the result for `NCCOCCO` reads 9.43. Molecule `N#Cc1cccc(-c2nnn[nH]2)c1` had a pKa (acidic group) of 3.45. On the same count and under the same terms, with `C[n+]1cccc(C(=O)Cc2ccccc2)c1` the figure was 10.3; with `O=C1NC(=O)[C@H](CSSC[C@@H]2NC(=O)NC2=O)N1`, 8.1. For the setting “basic group”, `C1CCN(N2CCCCC2)CC1` showed a pKa of 7.09.

Where the note is “acidic group”, `CN(O)C(=O)C(C)(C)C` returned a pKa of 9.94. For the setting “basic group”, `CSc1nc(N)n[nH]1` gave a pKa of 3.27. In the case of `c1cncc(C2=NCCC2)c1`, the pKa (basic group) was found to be 8.77.

For the setting “basic group”, `CCCc1ccc(C)nn1` had a pKa of 4.25. Under “acidic group”, `OC(c1ccncc1)(c1ccccn1)c1ccccn1` showed a pKa of 13.1.
